The subject of assay [1] is cancer cell line KM12C, in which RON is activated. Briefly: Cell-killing efficacy in RON-activated cancer cell line (trypan blue). It is filed as cell-based. Conditions: Homo sapiens, 48 hours, trypan blue, n=2, read-out: Cell death (%) Cancer cell line KM12C. As for the experimental part: Experimental Example 3: Measurement of Cell-Killing Efficacy of Example Compounds in RON-Activated Cancer Cell Line
The cancer cell line KM12C (80015, KCLB, MEM+10% FBS), in which RON is activated, was dispensed into each 60 mm^2 dish at 1×10^5 cells. After 24 hours, the dish was treated with each of the example compounds at a concentration of 1 μM or 5 μM while performing medium exchange, and then reaction was allowed to proceed for 48 hours. After 48 hours, centrifugation was performed for 4 minutes at 1,500 rpm to collect cells and cell fluid. Thereafter, living cells and dead cells were quantified (n=2) using a trypan blue solution (15250-061, Gibco), and statistical analysis was performed using Excel-T-test. Here, as a negative control, only a solvent (0.100 DMSO) was used; and as a positive control, N-(4-(2-amino-3-chloropyridin-4-yloxy)-3-fluorophenyl)-4-ethoxy-1-(4-fluorophenyl)-2-oxo-1,2-dihydropyridine-3-carboxamide, which is the compound of Example 1 in WO 2008/058229 A1, was used.

Assay [2] shares this test system. Briefly: Cell growth inhibitory ability in RON-activated cancer cell line (MTS). It is filed as cell-based. The following applies: Homo sapiens, 48 hours, absorbance 490 nm. As for the experimental part: Experimental Example 2: Identification of Cell Growth Inhibitory Ability of Example Compounds in RON-Activated Cancer Cell Line
The cancer cell line KM12C (80015, KCLB, MEM+1K° FBS), in which RON is activated, was treated with each of the example compounds at a concentration of 10 μM, and then reaction was allowed to proceed for 48 hours. 24 hours after completion of the reaction, 20 μl of MTS solution (CellTiter 96 Aqueous One Solution Cell Proliferation Assay, product number: G3581, Promega) was added to each well, and then incubation was performed at a temperature of 37° C. in 50 CO2 incubator for 4 hours. Then, an IC50 value of the compound was derived by measuring its absorbance value at a wavelength of 490 nm using a Victor X5 plate reader. Here, as a positive control, N-(4-(2-amino-3-chloropyridin-4-yloxy)-3-fluorophenyl)-4-ethoxy-1-(4-fluorophenyl)-2-oxo-1,2-dihydropyridine-3-carboxamide, which is the compound of Example 1 in WO 2008/058229 A1, was used.

Cytotoxicity and IC50 data for 15 compounds are collected here from patent publication US20220235064A1 (WELLMARKER BIO CO., LTD., priority 2019, published 2022).

Each structure is given as a SMILES string.

For orientation: IC50 means the concentration that gives 50% inhibition. Higher therefore signals weaker potency in that assay. `O=C(Nc1ccc(Oc2ccnc3cc(-c4ccc(CN5CCCC(O)C5)cn4)sc23)c(F)c1)c1c2c(cn(-c3ccc(F)cc3)c1=O)CCO2` (stereo not drawn) [Example 30, N-(3-Fluoro-4-((2-(5-((3-hydroxypiperidin-1-yl)methyl)pyridin-2-yl)thieno[3,2-b]pyridin-7-yl)oxy)phenyl)-5-(4-fluorophenyl)-6-oxo-2,3,5,6-tetrahydrofuro[3,2-c]pyridine-7-carboxamide]: in assay [1], the cytotoxicity at 1 µM turned out to be 24.8% and the cytotoxicity at 5 µM stood at 25.9%. The compound further registered an IC50 in assay [2] of 1 nM.
As to `COC1(C)CN(Cc2ccc(-c3cc4nccc(Oc5ccc(NC(=O)c6c7c(cn(-c8ccc(F)cc8)c6=O)CCO7)cc5F)c4s3)nc2)C1` [Example 16, N-(3-Fluoro-4-((2-(5-((3-methoxy-3-methylazetidin-1-yl)methyl)pyridin-2-yl)thieno[3,2-b]pyridin-7-yl)oxy)phenyl)-5-(4-fluorophenyl)-6-oxo-2,3,5,6-tetrahydrofuro[3,2-c]pyridine-7-carboxamide], in assay [1], the cytotoxicity at 1 µM was found to be 20.4% and the cytotoxicity at 5 µM is 24.2%. Besides, the IC50 in assay [2] stood at 1 nM.
For `COc1cc2c(Oc3ccc(NC(=O)c4c5c(cn(-c6ccc(F)cc6)c4=O)CCO5)cc3F)ccnc2cc1OCCN1CCC(C)(O)CC1` [Example 137, N-(3-Fluoro-4-((7-(2-(4-hydroxy-4-methylpiperidin-1-yl)ethoxy)-6-methoxyquinoline-4-yl)oxy)phenyl)-5-(4-fluorophenyl)-6-oxo-2,3,5,6-tetrahydrofuro[3,2-c]pyridine-7-carboxamide] the same measures were 18.2%, 22.4% and 2 nM.
For `CC1CCN(Cc2ccc(-c3cc4nccc(Oc5ccc(NC(=O)c6c7c(cn(-c8ccc(F)cc8)c6=O)CCO7)cc5F)c4s3)nc2)CC1` [Example 36, N-(3-Fluoro-4-((2-(5-((4-methylpiperidin-1-yl)methyl)pyridin-2-yl)thieno[3,2-b]pyridin-7-yl)oxy)phenyl)-5-(4-fluorophenyl)-6-oxo-2,3,5,6-tetrahydrofuro[3,2-c]pyridine-7-carboxamide] the same measures were 17.1%, 30% and 5 nM.
On the same counts, the results for `COc1cc2c(Oc3ccc(NC(=O)c4c5c(cn(-c6ccc(F)cc6)c4=O)CCO5)cc3F)ccnc2cc1OCCCN1CCC(C)(O)C1` (stereo not drawn) [Example 91, N-(3-Fluoro-4-((7-(3-(3-hydroxy-3-methylpyrrolidin-1-yl)propoxy)-6-methoxyquinoline-4-yl)oxy)phenyl)-5-(4-fluorophenyl)-6-oxo-2,3,5,6-tetrahydrofuro[3,2-c]pyridine-7-carboxamide] are 12.7%, 14.3% and 50 nM.
For the compound `COc1cc2c(Oc3ccc(NC(=O)c4c5c(cn(-c6ccc(F)cc6)c4=O)CCO5)cc3F)ccnc2cc1OCCCN1CC(C#N)C1` [Example 88, N-(4-((7-(3-(3-Cyanoazetidin-1-yl)propoxy)-6-methoxyquinolin-4-yl)oxy)-3-fluorophenyl)-5-(4-fluorophenyl)-6-oxo-2,3,5,6-tetrahydrofuro[3,2-c]pyridine-7-carboxamide], in assay [1], the cytotoxicity at 1 µM is 18.8% and the cytotoxicity at 5 µM amounted to 24.7%. Also, the IC50 in assay [2] came out at 3 nM.
On the same counts, the results for `COc1cc2c(Oc3ccc(NC(=O)c4c5c(cn(-c6ccc(F)cc6)c4=O)CCO5)cc3F)ccnc2cc1OCCCN1CCC(F)(F)C1` [Example 95, N-(4-((7-(3-(3,3-Difluoropyrrolidin-1-yl)propoxy)-6-methoxyquinolin-4-yl)oxy)-3-fluorophenyl)-5-(4-fluorophenyl)-6-oxo-2,3,5,6-tetrahydrofuro[3,2-c]pyridine-7-carboxamide] are 19.6%, 25.6% and 5 nM.
For `O=C(Nc1ccc(Oc2ccnc3cc(-c4ccc(CN5CCC(F)(F)C5)cn4)sc23)c(F)c1)c1c2c(cn(-c3ccc(F)cc3)c1=O)CCO2` [Example 28, N-(4-((2-(5-((3,3-Difluoropyrrolidin-1-yl)methyl)pyridin-2-yl)thieno[3,2-b]pyridine-7-yl)oxy)-3-fluorophenyl)-5-(4-fluorophenyl)-6-oxo-2,3,5,6-tetrahydrofuro[3,2-c]pyridine-7-carboxamide] the same measures were 9.6%, 10.3% and 3 nM.
Turning to `CC1(O)CCN(Cc2ccc(-c3cc4nccc(Oc5ccc(NC(=O)c6c7c(cn(-c8ccc(F)cc8)c6=O)CCO7)cc5F)c4s3)nc2)C1` (stereo not drawn) [Example 24, N-(3-Fluoro-4-((2-(5-((3-hydroxy-3-methylpyrrolidin-1-yl)methyl)pyridin-2-yl)thieno[3,2-b]pyridin-7-yl)oxy)phenyl)-5-(4-fluorophenyl)-6-oxo-2,3,5,6-tetrahydrofuro[3,2-c]pyridine-7-carboxamide], in assay [1], the cytotoxicity at 1 µM was 18.6% and the cytotoxicity at 5 µM was 16.9%. Besides, in assay [2], the IC50 was determined as 1 nM.
For `N#CC1CN(Cc2ccc(-c3cc4nccc(Oc5ccc(NC(=O)c6c7c(cn(-c8ccc(F)cc8)c6=O)CCO7)cc5F)c4s3)nc2)C1` [Example 19, N-(4-((2-(5-((3-Cyanoazetidin-1-yl)methyl)pyridin-2-yl)thieno[3,2-b]pyridin-7-yl)oxy)-3-fluorophenyl)-5-(4-fluorophenyl)-6-oxo-2,3,5,6-tetrahydrofuro[3,2-c]pyridine-7-carboxamide] the same measures were 15.7%, 21.9% and 1 nM.
With `O=C(Nc1ccc(Oc2ccnc3cc(-c4ccc(CN5CCC(F)(F)CC5)cn4)sc23)c(F)c1)c1c2c(cn(-c3ccc(F)cc3)c1=O)CCO2` [Example 35, N-(4-((2-(5-((4,4-Difluoropiperidin-1-yl)methyl)pyridin-2-yl)thieno[3,2-b]pyridine-7-yl)oxy)-3-fluorophenyl)-5-(4-fluorophenyl)-6-oxo-2,3,5,6-tetrahydrofuro[3,2-c]pyridine-7-carboxamide], in assay [1], the cytotoxicity at 1 µM is 19.6% and the cytotoxicity at 5 µM is 28.1%. The same compound registered a half-inhibitory concentration (IC50) in assay [2] of 4 nM.
Regarding `COc1cc2c(Oc3ccc(NC(=O)c4c5c(cn(-c6ccc(F)cc6)c4=O)CCO5)cc3F)ccnc2cc1OCCCN1CCS(=O)(=O)CC1` [Example 102, N-(4-((7-(3-(1,1-Dioxidothiomorpholino)propoxy)-6-methoxyquinolin-4-yl)oxy)-3-fluorophenyl)-5-(4-fluorophenyl)-6-oxo-2,3,5,6-tetrahydrofuro[3,2-c]pyridine-7-carboxamide], in assay [1], the cytotoxicity at 1 µM came out at 23.4% and the cytotoxicity at 5 µM worked out at 29.7%. Also, the IC50 in assay [2] is 1 nM.
On to `COC1CCCN(Cc2ccc(-c3cc4nccc(Oc5ccc(NC(=O)c6c7c(cn(-c8ccc(F)cc8)c6=O)CCO7)cc5F)c4s3)nc2)C1` (stereo not drawn) [Example 32, N-(3-Fluoro-4-((2-(5-((3-methoxypiperidin-1-yl)methyl)pyridin-2-yl)thieno[3,2-b]pyridin-7-yl)oxy)phenyl)-5-(4-fluorophenyl)-6-oxo-2,3,5,6-tetrahydrofuro[3,2-c]pyridine-7-carboxamide], for which, in assay [1], the cytotoxicity at 1 µM turned out to be 13.5% and the cytotoxicity at 5 µM came to 20.4%. In addition, in assay [2], the half-inhibitory concentration (IC50) stood at 6 nM.
On the same counts, the results for `O=C(Nc1ccc(Oc2ccnc3cc(-c4ccc(CN5CCC(F)C5)cn4)sc23)c(F)c1)c1c2c(cn(-c3ccc(F)cc3)c1=O)CCO2` (stereo not drawn) [Example 27, N-(3-Fluoro-4-((2-(5-((3-fluoropyrrolidin-1-yl)methyl)pyridin-2-yl)thieno[3,2-b]pyridin-7-yl)oxy)phenyl)-5-(4-fluorophenyl)-6-oxo-2,3,5,6-tetrahydrofuro[3,2-c]pyridine-7-carboxamide] are 17.3%, 29% and 2 nM.
As for `O=C(Nc1ccc(Oc2ccnc3cc(-c4ccc(CN5CC(F)(F)C5)cn4)sc23)c(F)c1)c1c2c(cn(-c3ccc(F)cc3)c1=O)CCO2` [Example 18, N-(4-((2-(5-((3,3-Difluoroazetidin-1-yl)methyl)pyridin-2-yl)thieno[3,2-b]pyridine-7-yl)oxy)-3-fluorophenyl)-5-(4-fluorophenyl)-6-oxo-2,3,5,6-tetrahydrofuro[3,2-c]pyridine-7-carboxamide], in assay [1], the cytotoxicity at 1 µM was found to be 10.9% and the cytotoxicity at 5 µM came out at 11.3%. The same compound showed an IC50 in assay [2] of 3 nM.
